According to US11767319B2, “Crystalline forms of a selective c-kit kinase inhibitor” (Third Harmonic Bio, Inc., priority 2020, dated 2023):

How the values were obtained:
Format in all cases: physicochemical
[1] = Competitive slurry experiments among anhydrates (IPA/IPAc); conditions: at RT and 50° C., IPA/IPAc slurries
Method: Competitive slurry experiments were performed in IPA/IPAc at RT/50° C. between anhydrates Form A of compound 1 and Form D of compound 1. Form A of compound 1 was added into each solvent to form a slurry at RT or 50° C. and was stirred for 2 h. The slurries were then filtered to obtain saturated solution. Around 10 mg each of Form A of compound 1 and Form D of compound 1 were added into each solution to form a mixed slurry at RT or 50° C. […] The formation of Form H^A of compound 1 is postulated to be caused by residual water in the solvents or due to ambient humidity (˜35% humidity during slurry experiments).

[2] = Variable temperature XRPD of Form D; conditions: heating to 150° C. or cooling to 30° C. under N2 purge
Method: FIG. 2D depicts a variable temperature XRPD of Form D of compound 1. The variable temperature experiment was conducted to further investigate the weight loss observed in the TGA curve.

[3] = Slurry experiments in SGF; conditions: 37° C., 500 rpm
Method: About 200 mg of sodium chloride and about 100 mg Triton X-100 was weighted into a 100-mL volumetric flask. About 100 mL of purified water was added to the flask and the solution was sonicated until all solids were completely dissolved. 1 M HCl was added to adjust the pH to 1.8 and the solution was mixed well and the pH was checked with a pH meter.
Competitive slurry experiments were performed for Forms A, H^A, H^B, C and D in SGF. About 10 mg of each form was added into separate HPLC vials followed by addition of 1.0 mL SGF in order to form slurries. The slurries were heated to 37° C. and stirred at 500 rpm. After 2 h or 24 h, the samples were centrifuged and the solids were collected for XRPD testing.

## Cc1ccc(-c2noc([C@H]3C[C@@H]3F)n2)cc1NC(=O)c1cnc2ccccn12 [Form D, N-(5-(5-((1R,2S)-2-fluorocyclopropyl)-1,2,4-oxadiazol-3-yl)-2-methylphenyl)imidazo[1,2-a]pyridine-3-carboxamide]
[1]
  relative thermodynamic stability: thermodynamically more stable than Form A
[2]
  form change in variable temperature XRPD: no form change
[3]; 2 h
  XRPD at 2 h: transformed to Form C
[3]; 24 h
  XRPD at 24 h: a mixture of Form C and an HCl salt form
